Measured values taken from PubChem BioAssay AID248 (DTP/NCI, 2004).
Values joined by “and” are separate entries in the source; they are usually repeats but may differ in a detail not shown here. Identical values can stand only once. Toxic doses and inconclusive results are not listed.

Test system: L1210 leukemia ip in BDF1 mice, survival T/C
Assay: NCI In Vivo Anticancer Drug Screen. Data for tumor model L1210 Leukemia (intraperitoneal) in B6D2F1 (BDF1) mice
Settings: higher = longer survival
How it was run: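 Transplantable tumor model; survival measured in treated vs vehicle control mice. Value = treated/control.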

[1] = endpoint: mean survival time, dose: 100.0 mg/kg/injection, schedule: Q01DX001 (ip), vehicle: saline
[2] = endpoint: mean survival time, dose: 200.0 mg/kg/injection, schedule: Q01DX001 (ip), vehicle: saline
[3] = endpoint: mean survival time, dose: 400.0 mg/kg/injection, schedule: Q01DX001 (ip), vehicle: saline

`C/C(=N/N=C(N)N)c1ccc(NC(=O)Nc2ccc(/C(C)=N/N=C(N)N)cc2)cc1` was tested, and the T/C (endpoint: mean survival time, dose: 8.0 mg/kg/injection, schedule: Q03HX016 (ip), vehicle: other) was 159 % of control, the T/C (endpoint: mean survival time, dose: 16.0 mg/kg/injection, schedule: Q01DX005 (ip), vehicle: other) was 179 % of control and the T/C (endpoint: mean survival time, dose: 16.0 mg/kg/injection, schedule: Q01DX009 (ip), vehicle: other) was 236 % of control. The T/C (endpoint: mean survival time, dose: 20.0 mg/kg/injection, schedule: Q01DX005 (ip), vehicle: saline) was 121 % of control, the T/C (endpoint: mean survival time, dose: 32.0 mg/kg/injection, schedule: Q01DX005 (ip), vehicle: other) was 213 % of control and the T/C (endpoint: mean survival time, dose: 32.0 mg/kg/injection, schedule: Q01DX009 (ip), vehicle: other) was 239 % of control. For the same compound, the T/C (endpoint: mean survival time, dose: 32.0 mg/kg/injection, schedule: Q01DX009 (ip), vehicle: water) was 154 % of control and 205 % of control, the T/C (endpoint: mean survival time, dose: 40.0 mg/kg/injection, schedule: Q01DX005 (ip), vehicle: saline) was 159 % of control and the T/C (endpoint: mean survival time, dose: 53.0 mg/kg/injection, schedule: Q01DX009 (ip), vehicle: water) was 218 % of control and 255 % of control. For the same compound, the T/C (endpoint: mean survival time, dose: 64.0 mg/kg/injection, schedule: Q01DX001 (ip), vehicle: other) was 116 % of control, the T/C (endpoint: mean survival time, dose: 64.0 mg/kg/injection, schedule: Q01DX001 (oral), vehicle: other) was 111 % of control and the T/C (endpoint: mean survival time, dose: 64.0 mg/kg/injection, schedule: Q01DX009 (oral), vehicle: other) was 111 % of control. The T/C (endpoint: mean survival time, dose: 64.0 mg/kg/injection, schedule: Q04DX003 (ip), vehicle: other) was 159 % of control, the T/C (endpoint: mean survival time, dose: 64.0 mg/kg/injection, schedule: Q08DX002 (ip), vehicle: other) was 122 % of control and the T/C (endpoint: mean survival time, dose: 80.0 mg/kg/injection, schedule: Q01DX005 (ip), vehicle: saline) was 206 % of control. For the same compound, the T/C (endpoint: mean survival time, dose: 88.0 mg/kg/injection, schedule: Q01DX009 (ip), vehicle: water) was 223 % of control and 251 % of control, the T/C (endpoint: mean survival time, dose: 128.0 mg/kg/injection, schedule: Q01DX001 (oral), vehicle: other) was 101 % of control and the T/C (endpoint: mean survival time, dose: 128.0 mg/kg/injection, schedule: Q01DX009 (oral), vehicle: other) was 106 % of control. The T/C (endpoint: mean survival time, dose: 147.0 mg/kg/injection, schedule: Q01DX009 (ip), vehicle: water) was 323 % of control, the T/C (endpoint: mean survival time, dose: 160.0 mg/kg/injection, schedule: Q01DX005 (ip), vehicle: saline) was 197 % of control and the T/C (endpoint: mean survival time, dose: 245.0 mg/kg/injection, schedule: Q01DX009 (ip), vehicle: water) was 227 % of control. For the same compound, the T/C (endpoint: mean survival time, dose: 256.0 mg/kg/injection, schedule: Q01DX001 (oral), vehicle: other) was 101 % of control, the T/C (endpoint: mean survival time, dose: 256.0 mg/kg/injection, schedule: Q01DX009 (oral), vehicle: other) was 108 % of control and the T/C (endpoint: mean survival time, dose: 320.0 mg/kg/injection, schedule: Q01DX005 (ip), vehicle: saline) was 173 % of control. For the same compound, the T/C (endpoint: mean survival time, dose: 512.0 mg/kg/injection, schedule: Q01DX001 (oral), vehicle: other) was 96 % of control, the T/C (endpoint: mean survival time, dose: 512.0 mg/kg/injection, schedule: Q01DX009 (oral), vehicle: other) was 108 % of control and the T/C (endpoint: mean survival time, dose: 1024.0 mg/kg/injection, schedule: Q01DX001 (oral), vehicle: other) was 97 % of control. For the same compound, the T/C (endpoint: mean survival time, dose: 1024.0 mg/kg/injection, schedule: Q01DX009 (oral), vehicle: other) was 109 % of control, the T/C (endpoint: median survival time, dose: 5.0 mg/kg/injection, schedule: Q03HX024 (ip), vehicle: water) was 152 % of control and the T/C (endpoint: median survival time, dose: 15.0 mg/kg/injection, schedule: Q03HX024 (ip), vehicle: water) was 302 % of control. The T/C (endpoint: median survival time, dose: 30.0 mg/kg/injection, schedule: Q03HX024 (ip), vehicle: water) was 34 % of control and the T/C (endpoint: median survival time, dose: 45.0 mg/kg/injection, schedule: Q03HX024 (ip), vehicle: water) was 31 % of control.
With `CN(C)CCCNC(=O)C1C(c2ccccc2)C1c1ccccc1` (configuration not stated) the T/C (endpoint: mean survival time, dose: 12.5 mg/kg/injection, schedule: Q04DX002 (ip), vehicle: saline with Tween-80) was 102 % of control, the T/C (endpoint: mean survival time, dose: 25.0 mg/kg/injection, schedule: Q04DX002 (ip), vehicle: saline with Tween-80) was 102 % of control and the T/C (endpoint: mean survival time, dose: 50.0 mg/kg/injection, schedule: Q04DX002 (ip), vehicle: saline with Tween-80) was 91 % of control.
`CNc1ncccn1` was tested, and the T/C (endpoint: mean survival time, dose: 50.0 mg/kg/injection, schedule: Q01DX001 (ip), vehicle: saline) was 109 % of control, the T/C [1] was 103 % of control and the T/C [2] was 107 % of control. The T/C [3] was 107 % of control.
In the case of `CC1(C)C(=O)C(=O)C2CCCCC21` (configuration not stated), the T/C (endpoint: mean survival time, dose: 100.0 mg/kg/injection, schedule: Q01DX009 (ip), vehicle: saline with Tween-80) is reported as 97 % of control, the T/C (endpoint: mean survival time, dose: 200.0 mg/kg/injection, schedule: Q01DX009 (ip), vehicle: saline with Tween-80) is reported as 110 % of control and the T/C (endpoint: mean survival time, dose: 400.0 mg/kg/injection, schedule: Q01DX009 (ip), vehicle: saline with Tween-80) is reported as 92 % of control.
`Cc1ccc(N=Nc2c(N)nc(N)[nH]c2=O)cc1C` was tested, and the T/C [1] was 100 % of control, the T/C [2] was 96 % of control and the T/C [3] was 96 % of control.
For `Nc1cc([N+](=O)[O-])ccc1Nc1ccccc1`, the T/C (endpoint: mean survival time, dose: 25.0 mg/kg/injection, schedule: Q01DX009 (ip), vehicle: DMSO) was 93 % of control and the T/C (endpoint: mean survival time, dose: 100.0 mg/kg/injection, schedule: Q04DX003 (ip), vehicle: DMSO) was 89 % of control.
